In patent US20250262201A1, “COMPOUNDS AND METHODS USEFUL FOR STABILIZING PHENYLALANINE HYDROXYLASE MUTATIONS” (Agios Pharmaceuticals, Inc., priority 2022, published 2025):

Each compound was assayed against T1, human PAH with the R408W mutation (Homo sapiens, UniProt P00439, R408W) (assay: Cell Based Phenylalanine Flux Assay). Details: A375 R408W cells, 24 hrs with compound, then 20 μM sepiapterin and 800 μM 13C9,15N-Phenylalanine for 4 hours; 13C-Tyrosine by LC-MS; average where tested multiple times; read-out: AC50.
T1 construct: expressed in transfected cells
T1 sequence (P00439 1-452 R408W): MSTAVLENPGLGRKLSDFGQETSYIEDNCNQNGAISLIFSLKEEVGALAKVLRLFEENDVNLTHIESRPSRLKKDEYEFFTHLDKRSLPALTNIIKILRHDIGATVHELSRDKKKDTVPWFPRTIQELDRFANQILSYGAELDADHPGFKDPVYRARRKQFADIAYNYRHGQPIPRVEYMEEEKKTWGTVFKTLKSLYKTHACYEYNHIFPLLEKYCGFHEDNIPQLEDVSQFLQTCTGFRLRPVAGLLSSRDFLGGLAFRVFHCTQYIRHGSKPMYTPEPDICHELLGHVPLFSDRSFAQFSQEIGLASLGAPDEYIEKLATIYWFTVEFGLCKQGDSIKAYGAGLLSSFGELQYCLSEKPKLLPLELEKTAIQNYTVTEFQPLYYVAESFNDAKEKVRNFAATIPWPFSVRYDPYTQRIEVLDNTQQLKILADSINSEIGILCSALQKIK

Structure (SMILES)	AC50 [µM]
O=C(c1nc2ccccc2s1)N1CCc2[nH]cnc2C1c1ccc2ccccc2c1 (centres unmarked)	> 5
O=C(CCc1nccs1)N1CCc2[nH]cnc2C1c1cn2ccccc2n1 (centres unmarked)	1 to 5
O=C(Cc1cscn1)N1CCc2[nH]cnc2C1c1cn2ccccc2n1 (centres unmarked)	1 to 5
O=C(Cc1cnco1)N1CCc2[nH]cnc2C1c1cn2ccccc2n1 (centres unmarked)	> 5
O=C(Cc1cncs1)N1CCc2[nH]cnc2C1c1cn2ccccc2n1 (centres unmarked)	> 5
O=C(CCc1ncco1)N1CCc2[nH]cnc2C1c1cn2ccccc2n1 (centres unmarked)	1 to 5
O=C(CCc1ccccc1)N1CCc2[nH]cnc2C1c1cn2ccccc2n1 (centres unmarked)	1 to 5
Cc1ncc(CC(=O)N2CCc3[nH]cnc3C2c2cn3ccccc3n2)o1 (centres unmarked)	> 5
Cc1nnc(CCC(=O)N2CCc3[nH]cnc3C2c2cn3ccccc3n2)s1 (centres unmarked)	> 5
O=C(Cc1nncs1)N1CCc2[nH]cnc2C1c1cn2ccccc2n1 (centres unmarked)	> 5
O=C(Cc1cnn2ccccc12)N1CCc2[nH]cnc2C1c1cn2ccccc2n1 (centres unmarked)	> 5
O=C(Cc1nc(C(F)(F)F)cs1)N1CCc2[nH]cnc2C1c1cn2ccccc2n1 (centres unmarked)	1 to 5
Cc1nc(C2(O)CC2)oc1C(=O)N1CCc2[nH]cnc2C1c1ccc2ccccc2n1 (centres unmarked)	1 to 5
Cc1nnc(C(=O)N2CCc3[nH]cnc3C2c2cn3ccccc3n2)o1 (centres unmarked)	1 to 5
Cn1ccc(C(=O)N2CCc3[nH]cnc3C2c2ccc3ccccc3n2)n1 (centres unmarked)	1 to 5
Cn1nc(C(F)(F)F)nc1C(=O)N1CCc2[nH]cnc2C1c1ccc2ccccc2n1 (centres unmarked)	1 to 5
O=C(c1ccn[nH]1)N1CCc2[nH]cnc2C1c1ccc2ccccc2n1 (centres unmarked)	1 to 5
Cc1nc(C2CCN2)oc1C(=O)N1CCc2[nH]cnc2C1c1ccc2ccccc2n1 (centres unmarked)	1 to 5
CC(C)(O)c1nc(C(F)(F)F)c(C(=O)N2CCc3[nH]cnc3C2c2cn3ccccc3n2)o1 (centres unmarked)	1 to 5
Cc1nc(C(C)(C)O)oc1C(=O)N1CCc2[nH]cnc2C1c1cn2ccccc2n1 (centres unmarked)	1 to 5
O=C(c1ocnc1C(F)F)N1CCc2nc[nH]c2C1c1cn2ccccc2n1 (centres unmarked)	1 to 5
O=C(c1cnco1)N1CCc2[nH]cnc2C1c1cn2ccccc2n1 (centres unmarked)	1 to 5
Cn1cc(-c2ncc(C(=O)N3CCc4[nH]cnc4C3c3ncc4ccccc4n3)o2)cn1 (centres unmarked)	> 5
CN(C)c1nnc(C(=O)N2CCc3[nH]cnc3C2c2ncc3ccccc3n2)o1 (centres unmarked)	> 5
O=C(c1nnc(-c2ncccn2)o1)N1CCc2[nH]cnc2C1c1ncc2ccccc2n1 (centres unmarked)	> 5
O=C(c1cnn2cc(N3CCC(O)CC3)ccc12)N1CCc2[nH]cnc2C1c1ncc2ccccc2n1 (centres unmarked)	1 to 5

Second part, the compound after the results:

AC50 [µM]	Structure (SMILES)
> 5	O=C(c1nnc(CCO)o1)N1CCc2[nH]cnc2C1c1ccc2ccccc2n1 (centres unmarked)
> 5	O=C(CCc1ccc(F)cc1)N1CCc2[nH]cnc2C1c1ccc2ccccc2c1 (centres unmarked)
> 5	Cc1nnc(CCC(=O)N2CCc3[nH]cnc3C2c2cn3ccccc3n2)o1 (centres unmarked)
> 5	O=C(Cc1ccccn1)N1CCc2[nH]cnc2C1c1cn2ccccc2n1 (centres unmarked)
> 5	Cc1nnc(CC(=O)N2CCc3[nH]cnc3C2c2cn3ccccc3n2)s1 (centres unmarked)
> 5	Cc1ncoc1CC(=O)N1CCc2[nH]cnc2C1c1cn2ccccc2n1 (centres unmarked)
> 5	Cn1nc(C(C)(C)O)cc1C(=O)N1CCc2[nH]cnc2C1c1ccc2ccccc2n1 (centres unmarked)
1 to 5	O=C(Cc1coc(C(F)F)n1)N1CCc2nc[nH]c2C1c1cn2ccccc2n1 (centres unmarked)
1 to 5	CC(C)(O)c1cc(C(=O)N2CCc3[nH]cnc3C2c2ccc3ccccc3n2)no1 (centres unmarked)
1 to 5	O=C(c1cn[nH]c1)N1CCc2[nH]cnc2C1c1ccc2ccccc2n1 (centres unmarked)
1 to 5	Cc1nc(C(C)(C)S(C)(=O)=O)oc1C(=O)N1CCc2[nH]cnc2C1c1ccc2ccccc2n1 (centres unmarked)
1 to 5	Cc1nc(-c2ccccn2)oc1C(=O)N1CCc2[nH]cnc2C1c1cn2ccccc2n1 (centres unmarked)
1 to 5	O=C(c1nnc(-c2ccccn2)o1)N1CCc2[nH]cnc2C1c1cn2ccccc2n1 (centres unmarked)
1 to 5	CC(C)(O)c1cc(C(=O)N2CCc3[nH]cnc3C2c2ccc3ccccc3n2)on1 (centres unmarked)
> 5	CC(C)(O)c1cc(C(=O)N2CCc3[nH]cnc3C2c2ccc3ccccc3n2)[nH]n1 (centres unmarked)
1 to 5	O=C(c1cnn(CC(F)(F)F)c1Cl)N1CCc2[nH]cnc2C1c1ccc2ccccc2n1 (centres unmarked)
1 to 5	O=C(c1cncs1)N1CCc2[nH]cnc2C1c1cn2ccccc2n1 (centres unmarked)
1 to 5	O=C(C1CC1)N1CCc2nc[nH]c2C1c1cn2ccccc2n1 (centres unmarked)
> 5	CC(C)(O)c1nnc(C(=O)N2CCc3[nH]cnc3C2c2ncc3ccccc3n2)o1 (centres unmarked)
> 5	Cc1nnc(C(=O)N2CCc3[nH]cnc3C2c2ncc3ccccc3n2)o1 (centres unmarked)
> 5	CN(C)Cc1ccc2c(C(=O)N3CCc4[nH]cnc4C3c3cn4ccccc4n3)cnn2c1 (centres unmarked)
